No end group written: not given here.
Key:
DPP-IV enzyme = molecular target: T1, DPP-IV enzyme (Sus scrofa, UniProt P22411); assay: Lineweaver-Burk double-reciprocal plot, mode of DPP-IV inhibition; format: biochemical, porcine; details: Figure 7
T1 construct: purchased Sigma Chemical Co. (St. Louis, MO, USA)
Description: Figure 7 Lineweaver—Burk double-reciprocal plot for DPP-IV activity in the absence and presence of four peptides at different inhibitory concentrations. […] (0, 150, and 300 μM); (C) peptide LAPSTM (0, 150, and 300 μM); (D) peptide […] (0, 250, and 500 μM); and (E) peptide FLMESH (0, 400, and 800 μM).
DPP-IV inhibitory activity was measured as previously described by Zhang with minor modifications. Briefly, a 25 μL sample (diluted in 100 mM Tris-HCl buffer at pH 8.0) was mixed with 25 μL Gly-Pro-p-nitroanilide (1.6 mM) and pre-incubated at 37 °C for 10 min. Subsequently, 50 μL of DPP-IV (8 U/L) was added and the mixture was incubated at 37 °C for 1 h. The reaction was terminated by adding 100 μL of 1 M sodium acetate buffer at pH 4.0. The absorbance of each reaction was measured at 405 nm. […] The percent DPP-IV inhibition was calculated according to the following equation: DPP-IV inhibition(%)=[1−Asample/Ablank]×100%

porcine DPP-IV = molecular target: T2, porcine DPP-IV (Sus scrofa, UniProt P22411); assay: DPP-IV inhibitory activity assay (Gly-Pro-p-nitroanilide substrate, absorbance 405 nm); format: biochemical; details: chemically synthesized peptides; diprotin A positive control
T2 construct: purchased Sigma Chemical Co. (St. Louis, MO, USA)
T2 sequence (P22411 whole entry): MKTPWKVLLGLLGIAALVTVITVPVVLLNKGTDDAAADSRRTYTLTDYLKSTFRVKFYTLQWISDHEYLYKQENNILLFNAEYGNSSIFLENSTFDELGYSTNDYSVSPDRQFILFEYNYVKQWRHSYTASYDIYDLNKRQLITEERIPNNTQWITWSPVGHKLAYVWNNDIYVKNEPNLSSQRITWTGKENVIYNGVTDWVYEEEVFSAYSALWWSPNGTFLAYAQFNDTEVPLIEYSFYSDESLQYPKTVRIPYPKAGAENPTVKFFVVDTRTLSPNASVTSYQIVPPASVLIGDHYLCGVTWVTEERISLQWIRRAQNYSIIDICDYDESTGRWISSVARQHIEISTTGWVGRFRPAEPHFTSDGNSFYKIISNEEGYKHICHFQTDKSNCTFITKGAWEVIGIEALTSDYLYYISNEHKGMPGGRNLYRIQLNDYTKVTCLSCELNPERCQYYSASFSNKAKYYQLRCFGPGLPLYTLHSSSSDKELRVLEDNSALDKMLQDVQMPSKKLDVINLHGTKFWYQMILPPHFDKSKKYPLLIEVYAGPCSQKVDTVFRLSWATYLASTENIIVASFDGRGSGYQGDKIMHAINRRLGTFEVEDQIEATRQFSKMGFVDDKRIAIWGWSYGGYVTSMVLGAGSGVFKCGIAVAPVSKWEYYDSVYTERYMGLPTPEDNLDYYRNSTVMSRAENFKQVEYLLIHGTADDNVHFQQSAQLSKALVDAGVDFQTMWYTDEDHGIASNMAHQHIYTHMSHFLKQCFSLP
Text: Papain (from papaya, 8 × 10^5 units/g of protein), trypsin (from porcine pancreas, 2.5 × 10^5 units/g of protein), pepsin (from porcine gastric mucosa, 1 × 10^4 units/g of protein), flavourzyme (from […], 2 × 10^4 units/g of protein), and alcalase (from Bacillus licheniformis, 2 × 10^5 units/g of protein) were purchased from […] Biological Tech., Ltd. (Nanjing, China). […] (St. Louis, MO, USA). Mass spectrometry (MS)-grade water, acetonitrile (ACN), and trifluoroacetic acid (TFA) were purchased from Tedia Company Inc. (Fairfield, CT, USA). All other reagents were obtained from Sigma. All reagents were of analytical grade. DPP-IV inhibitory activity was measured as previously described by Zhang with minor modifications. Briefly, a 25 μL sample (diluted in 100 mM Tris-HCl buffer at pH 8.0) was mixed with 25 μL Gly-Pro-p-nitroanilide (1.6 mM) and pre-incubated at 37 °C for 10 min. […] The reaction was terminated by adding 100 μL of 1 M sodium acetate buffer at pH 4.0. The absorbance of each reaction was measured at 405 nm. Diprotin A ([…]) was used as a reference inhibitor. The percent DPP-IV inhibition was calculated according to the following equation: […] The DPP-IV inhibitory activity of these chemically synthesized peptides was determined as described in Section 3.3.

DPP-IV [1] = tested on: DPP-IV; design: method as in PMID 25577052; details: read-out: DPP-IV inhibitory activity IC50; cited from earlier work
DPP-IV [2] = tested on: DPP-IV; design: method as in PMID 26758401; details: heptapeptide derived from silver carp actin; cited from earlier work

T1 sequence (P22411 whole entry): as above

Molecule	mode of inhibition of DPP-IV enzyme (DPP-IV enzyme)	IC50 (porcine DPP-IV) [µM]	IC50 (DPP-IV [1]) [µM]	DPP-IV inhibitory effect (DPP-IV [2])
CC[C@H](C)[C@H](N)C(=O)N1CCC[C@H]1C(=O)N[C@H](C(=O)O)[C@@H](C)CC [diprotin A, Ile-Pro-Ile, reference compound]	competitive inhibitor			
FLMESH [FLMESH]	competitive/non-competitive mixed-type inhibition mode	> 500		
Leu-Ala			91	
LAPSTM [LAPSTM]		141		
FAGDDAPR [FAGDDAPR]	competitive/non-competitive mixed-type inhibition mode	169		
FAGDDAPRA [FAGDDAPRA]	competitive/non-competitive mixed-type inhibition mode	393		
ALAPSTM [heptapeptide derived from silver carp actin, from the literature]				weak DPP-IV inhibitory effect

Source: article PMC6151561, “Rapid Identification of Dipeptidyl Peptidase-IV (DPP-IV) Inhibitory Peptides from Ruditapes philippinarum Hydrolysate” (Molecules : A Journal of Synthetic Chemistry and Natural …, 2017)
